{"source": "ChEMBL document CHEMBL2321647", "about": "(ACS Med Chem Lett, 2013)", "key": {"Histone deacetylase 9": {"molecular_target": "Histone deacetylase 9 (Homo sapiens, UniProt Q9UKV0)", "sequence (Q9UKV0 whole entry, the tested form may be a part)": "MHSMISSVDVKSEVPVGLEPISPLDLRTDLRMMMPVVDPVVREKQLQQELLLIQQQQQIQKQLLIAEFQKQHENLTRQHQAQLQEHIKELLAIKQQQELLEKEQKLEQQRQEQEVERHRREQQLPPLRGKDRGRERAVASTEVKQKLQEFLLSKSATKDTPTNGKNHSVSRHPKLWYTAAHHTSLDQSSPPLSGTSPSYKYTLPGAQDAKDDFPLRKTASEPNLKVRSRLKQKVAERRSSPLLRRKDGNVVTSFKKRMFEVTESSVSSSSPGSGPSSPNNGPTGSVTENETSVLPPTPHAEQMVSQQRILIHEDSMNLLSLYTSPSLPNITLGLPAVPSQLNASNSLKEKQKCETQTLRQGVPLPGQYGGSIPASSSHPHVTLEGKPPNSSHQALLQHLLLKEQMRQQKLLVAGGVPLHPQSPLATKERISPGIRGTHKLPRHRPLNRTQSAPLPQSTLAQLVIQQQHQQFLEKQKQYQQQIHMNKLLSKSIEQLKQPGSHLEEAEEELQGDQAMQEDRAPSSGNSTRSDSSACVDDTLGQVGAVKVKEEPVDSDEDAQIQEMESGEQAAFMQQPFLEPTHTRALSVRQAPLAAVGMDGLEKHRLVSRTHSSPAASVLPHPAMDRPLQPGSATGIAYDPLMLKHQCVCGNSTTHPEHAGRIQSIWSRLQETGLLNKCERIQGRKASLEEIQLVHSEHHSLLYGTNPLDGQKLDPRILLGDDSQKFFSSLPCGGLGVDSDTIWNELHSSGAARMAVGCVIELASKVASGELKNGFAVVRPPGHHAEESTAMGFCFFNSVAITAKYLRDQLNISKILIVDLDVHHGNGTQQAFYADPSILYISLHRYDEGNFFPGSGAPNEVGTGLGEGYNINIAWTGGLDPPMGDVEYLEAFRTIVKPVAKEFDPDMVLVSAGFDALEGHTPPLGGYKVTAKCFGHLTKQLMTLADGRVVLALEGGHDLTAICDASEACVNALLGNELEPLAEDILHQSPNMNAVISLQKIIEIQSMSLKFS", "experiment": "(§1) Inhibition of C-terminal His-tagged human recombinant HDAC9 (amino acids 604- 1066) expressed in baculovirus expression system using fluorogenic acetylated peptide as substrate preincubated with enzyme for 10 mins prior to substrate addition measured after 60 mins by fluorescence analysis"}, "Histone deacetylase 1": {"molecular_target": "Histone deacetylase 1 (Homo sapiens, UniProt Q13547)", "sequence (Q13547 whole entry, the tested form may be a part)": "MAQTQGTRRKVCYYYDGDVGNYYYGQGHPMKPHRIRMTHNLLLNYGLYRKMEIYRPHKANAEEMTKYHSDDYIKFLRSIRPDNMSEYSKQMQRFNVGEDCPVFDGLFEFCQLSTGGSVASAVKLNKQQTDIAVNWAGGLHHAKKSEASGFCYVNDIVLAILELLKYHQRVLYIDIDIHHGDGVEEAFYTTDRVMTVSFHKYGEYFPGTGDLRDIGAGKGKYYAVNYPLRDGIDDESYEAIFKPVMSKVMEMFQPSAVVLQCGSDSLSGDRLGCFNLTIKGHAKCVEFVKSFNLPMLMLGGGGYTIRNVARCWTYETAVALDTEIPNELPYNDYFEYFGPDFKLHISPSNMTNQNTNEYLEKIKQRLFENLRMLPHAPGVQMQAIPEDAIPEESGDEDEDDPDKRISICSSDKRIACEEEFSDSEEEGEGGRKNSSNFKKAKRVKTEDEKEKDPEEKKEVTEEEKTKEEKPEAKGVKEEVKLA", "experiment": "as §1, with “His-tagged and C-terminal FLAG-tagged full length” for “His-tagged”, “HDAC1” for “HDAC9 (amino acids 604- 1066)”"}, "Histone deacetylase 2": {"molecular_target": "Histone deacetylase 2 (Homo sapiens, UniProt Q92769)", "sequence (Q92769 whole entry)": "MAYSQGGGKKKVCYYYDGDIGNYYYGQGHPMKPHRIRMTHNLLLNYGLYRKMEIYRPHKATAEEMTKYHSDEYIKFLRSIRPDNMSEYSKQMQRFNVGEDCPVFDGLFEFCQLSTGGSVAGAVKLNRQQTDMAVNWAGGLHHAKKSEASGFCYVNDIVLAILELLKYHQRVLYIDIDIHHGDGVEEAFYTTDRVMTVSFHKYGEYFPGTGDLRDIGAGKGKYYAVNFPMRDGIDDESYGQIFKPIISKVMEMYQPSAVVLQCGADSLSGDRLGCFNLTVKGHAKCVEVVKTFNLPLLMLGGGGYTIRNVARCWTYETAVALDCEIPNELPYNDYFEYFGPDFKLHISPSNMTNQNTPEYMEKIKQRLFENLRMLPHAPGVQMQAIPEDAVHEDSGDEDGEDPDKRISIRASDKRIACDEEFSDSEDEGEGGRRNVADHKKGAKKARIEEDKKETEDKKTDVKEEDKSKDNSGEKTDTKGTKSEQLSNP", "experiment": "Inhibition of C-terminal His-tagged full length human recombinant HDAC2 expressed in baculovirus expression system using fluorogenic acetylated peptide as substrate preincubated with enzyme for 10 mins prior to substrate addition measured after 60 mins by fluorescence analysis"}, "Histone deacetylase 3": {"molecular_target": "Histone deacetylase 3 (Homo sapiens, UniProt O15379)", "sequence (O15379 whole entry)": "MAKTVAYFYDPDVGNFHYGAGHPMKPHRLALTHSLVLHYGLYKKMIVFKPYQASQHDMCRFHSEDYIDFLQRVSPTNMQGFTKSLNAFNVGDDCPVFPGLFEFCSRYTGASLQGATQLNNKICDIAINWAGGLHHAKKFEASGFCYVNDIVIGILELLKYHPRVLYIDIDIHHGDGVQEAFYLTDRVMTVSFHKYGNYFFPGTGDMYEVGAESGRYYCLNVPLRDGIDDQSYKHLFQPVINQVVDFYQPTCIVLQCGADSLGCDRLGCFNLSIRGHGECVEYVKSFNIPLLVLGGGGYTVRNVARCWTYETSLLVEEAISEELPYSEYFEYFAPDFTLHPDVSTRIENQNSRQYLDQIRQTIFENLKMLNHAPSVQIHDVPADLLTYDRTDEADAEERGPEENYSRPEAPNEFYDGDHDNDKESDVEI", "experiment": "Inhibition of C-terminal His-tagged full length human recombinant HDAC3 co-expressed with NcoR2 in baculovirus expression system using fluorogenic acetylated peptide as substrate preincubated with enzyme for 10 mins prior to substrate addition measured after 60 mins by fluorescence analysis"}}}
{"smiles": "CCCCCCCC(=O)SCC/C=C/[C@@H]1CC(=O)NCc2nc(cs2)-c2nnn(n2)CC(=O)N[C@@H](C(C)C)C(=O)O1", "values": [{"measurement": "IC50", "setting": "Histone deacetylase 9", "result": "> 100", "unit": "µM"}, {"measurement": "IC50", "setting": "Histone deacetylase 1", "result": 7.42, "unit": "µM"}, {"measurement": "IC50", "setting": "Histone deacetylase 2", "result": 30.8, "unit": "µM"}, {"measurement": "IC50", "setting": "Histone deacetylase 3", "result": 3.99, "unit": "µM"}]}
{"smiles": "CC(C)[C@@H]1NC(=O)Cn2nnc(n2)-c2csc(n2)CNC(=O)C[C@@H](/C=C/CCS)OC1=O", "values": [{"measurement": "IC50", "setting": "Histone deacetylase 9", "result": 34.6, "unit": "µM"}, {"measurement": "IC50", "setting": "Histone deacetylase 1", "result": 0.1, "unit": "µM"}, {"measurement": "IC50", "setting": "Histone deacetylase 2", "result": 0.224, "unit": "µM"}, {"measurement": "IC50", "setting": "Histone deacetylase 3", "result": 0.031, "unit": "µM"}]}
{"smiles": "CCCCCCCC(=O)SCC/C=C/[C@@H]1CC(=O)NCc2nc(cs2)-c2nnnn2CC(=O)N[C@@H](C(C)C)C(=O)O1", "values": [{"measurement": "IC50", "setting": "Histone deacetylase 9", "result": 18.4, "unit": "µM"}, {"measurement": "IC50", "setting": "Histone deacetylase 2", "result": 25.1, "unit": "µM"}, {"measurement": "IC50", "setting": "Histone deacetylase 3", "result": 10.4, "unit": "µM"}]}
{"smiles": "CC(C)[C@@H]1NC(=O)Cn2nnnc2-c2csc(n2)CNC(=O)C[C@@H](/C=C/CCS)OC1=O", "values": [{"measurement": "IC50", "setting": "Histone deacetylase 9", "result": 16.2, "unit": "µM"}, {"measurement": "IC50", "setting": "Histone deacetylase 1", "result": 1.67, "unit": "µM"}, {"measurement": "IC50", "setting": "Histone deacetylase 2", "result": 3.27, "unit": "µM"}, {"measurement": "IC50", "setting": "Histone deacetylase 3", "result": 0.649, "unit": "µM"}]}
{"smiles": "CCCCCCCC(=O)SCC/C=C/[C@@H]1CC(=O)NCc2nc(cs2)-c2cn(nn2)CC(=O)N[C@@H](C(C)C)C(=O)O1", "values": [{"measurement": "IC50", "setting": "Histone deacetylase 9", "result": 63.2, "unit": "µM"}, {"measurement": "IC50", "setting": "Histone deacetylase 1", "result": 17.6, "unit": "µM"}, {"measurement": "IC50", "setting": "Histone deacetylase 2", "result": 32.1, "unit": "µM"}, {"measurement": "IC50", "setting": "Histone deacetylase 3", "result": 14, "unit": "µM"}]}
{"smiles": "CC(C)[C@@H]1NC(=O)Cn2cc(nn2)-c2csc(n2)CNC(=O)C[C@@H](/C=C/CCS)OC1=O", "values": [{"measurement": "IC50", "setting": "Histone deacetylase 9", "result": 32, "unit": "µM"}, {"measurement": "IC50", "setting": "Histone deacetylase 1", "result": 2.35, "unit": "µM"}, {"measurement": "IC50", "setting": "Histone deacetylase 2", "result": 3.88, "unit": "µM"}, {"measurement": "IC50", "setting": "Histone deacetylase 3", "result": 0.885, "unit": "µM"}]}
{"smiles": "CCCCCCCC(=O)SCC/C=C/[C@@H]1CC(=O)NCc2nc(cs2)C2=N[C@@](C)(CS2)C(=O)N[C@@H](C(C)C)C(=O)O1", "note": "[LARGAZOLE]", "values": [{"measurement": "IC50", "setting": "Histone deacetylase 9", "result": 8.33, "unit": "µM"}, {"measurement": "IC50", "setting": "Histone deacetylase 1", "result": 0.146, "unit": "µM"}, {"measurement": "IC50", "setting": "Histone deacetylase 2", "result": 1.72, "unit": "µM"}]}
